# “Also recorded” adds a separate entry of the source.
# How the values were obtained:
# [1] = Heat stability test (UV-absorption left after storage at 50° C.); format: physicochemical; conditions: for Heat stability: UV-absorption left after 5 days: 5 days at 50° C. in the dark; for Heat stability: UV-absorption left after 5 days / Heat stability: UV-absorption left after 50 days / Heat stability: UV-absorption left after 100 days: 1.5% in C12-C15 alkyl benzoate oil (compound 12: 5% in water), 375 nm versus sample stored at room temperature; for Heat stability: UV-absorption left after 50 days: 50 days at 50° C. in the dark; for Heat stability: UV-absorption left after 100 days: 100 days at 50° C. in the dark; for heat stability, in words: in C12-C15 alkylbenzoate oils
# Experimental: Hereto, 1.5% solutions were prepared of compounds 4-11 and 13 in C12-C15 alkyl benzoate oil. […] The solutions were stored in closed vessels at 50° C. in the dark. After 5, 50 and 100 days, the UV-absorption of a diluted sample was measured at 375 nm comparative to a corresponding sample stored at room temperature. The UV-absorption left after each time span is shown in Table 4 indicated by + and − signs. ++ means >95% left, +− implies between 50-95% left, − indicates <50% left.
# human skin = assay: Skin penetration test in diffusion cell; format: in vitro ADME; conditions: human skin, diffusion cell; for penetration through the skin (UV-analysis of collected receptor fluids), in words: 20 hrs
# Experimental: The skin-penetration was evaluated based on the same method described on page 21 of WO2006/009451. FIG. 2 is a drawing of the skin penetration test equipment, wherein (1) indicates the position of the test sample (donor compound), (2) an ⅛″ OD× 1/32″ wall tubing, (3) the receptor input, (4) the receptor compartment and (5) the compound and receptor output that is subjected to analysis.
# A compound 3 donor solution was prepared by dissolving 30 mg of compound 3 in 4 ml EtOH and 7 ml phosphate buffer (PBS) at pH 7.4. Compound 4, 6, 7, 8 and 9 donor solutions were prepared by dispersing 80 mg of these compounds in olive oil.
# For each compound 4 pieces of human skin (Ø ca 3 cm, mostly epidermis) were applied on a dialysis membrane and mounted into the diffusion cell shown in the FIG. 2. The figure is a schematic drawing of the diffusion cell, wherein is indicated 1: donor compound, 2: receptor compartment, 3: receptor input, 4: compound and receptor output for analysis, 5: ⅛″ OD× 1/32″ wall tubing. The cells were mounted on a temperature controlling and stirring device. The temperature was kept at 37°. The receptor fluid was a PBS buffer. The receptor compartment was stirred magnetically. 400 μl of the donor solution was applied. The receptor fluid flowing at a speed of 1 ml/hr was collected into glass tubes (1 tube/2 hrs). After 20 hrs the penetration experiment was terminated.
# Furthermore the skin parts were extracted with DMSO to dissolve any UV-absorber in the epidermis. The extracts were analysed by UV.
# [2] = Spectral analysis: UV extinction value E at 375 nm; format: physicochemical; conditions: 1% solution in DMSO at 375 nm
# Source text: The aminobutadiene compounds according to the present invention have a typical extinction value E of about 1100 to about 1500 AU/cm of a 1% solution in dimethylsulfoxide (DMSO, Sigma Aldrich ACS spectrophotometric grade) at 375 nm, which is typically the wavelength of the absorption maximum of such compounds. The exact value of E depends on the relative contribution of the core and the R-groups to the molecular weight, while the exact wavelength of the absorption maximum depends on the type of substituents. Spectra were obtained on a HP 8452A diode array spectrophotometer against a DMSO blanc.
# [3] = Solubility test in C12-C15 alkyl benzoate oil (Finsolv TN); format: physicochemical; design: key to Solubility in Finsolv TN, dissolved amount (m/m %) 1% / Solubility in Finsolv TN, dissolved amount (m/m %) 5% / Solubility in Finsolv TN, dissolved amount (m/m %) 20% / Solubility in Finsolv TN, dissolved amount (m/m %) 50% / Solubility in Finsolv TN, dissolved amount (m/m %) 80% / Solubility in Finsolv TN, dissolved amount (m/m %) 90%: +=well-soluble; −=not soluble
# Experimental: The aminobutadiene compounds according to the present invention have an optimised solubility for cosmetic oils. […] In Table 3, the solubility of compounds 4, 12 and 13 is shown at various concentrations (+=well-soluble; -=not soluble). The compounds were dissolved at 80° C. while stirring for 1 hour and cooled down to room temperature. After 24 hours the solutions were inspected for any precipitates or crystals.
Compound,Heat stability: UV-absorption left after 5 days [1],Heat stability: UV-absorption left after 50 days [1],Heat stability: UV-absorption left after 100 days [1],"heat stability, in words [1]","penetration into or through the skin (UV analysis of DMSO skin extracts), in words (human skin)","penetration through the skin (UV-analysis of collected receptor fluids), in words (human skin)",extinction E [2] [au/cm],"Solubility in Finsolv TN, dissolved amount (m/m %) 1% ([3]; 1% m/m, dissolved at 80° C. for 1 hour, cooled to room temperature, inspected after 24 hours)","Solubility in Finsolv TN, dissolved amount (m/m %) 5% ([3]; 5% m/m, dissolved at 80° C. for 1 hour, cooled to room temperature, inspected after 24 hours)","Solubility in Finsolv TN, dissolved amount (m/m %) 20% ([3]; 20% m/m, dissolved at 80° C. for 1 hour, cooled to room temperature, inspected after 24 hours)","Solubility in Finsolv TN, dissolved amount (m/m %) 50% ([3]; 50% m/m, dissolved at 80° C. for 1 hour, cooled to room temperature, inspected after 24 hours)","Solubility in Finsolv TN, dissolved amount (m/m %) 80% ([3]; 80% m/m, dissolved at 80° C. for 1 hour, cooled to room temperature, inspected after 24 hours)","Solubility in Finsolv TN, dissolved amount (m/m %) 90% ([3]; 90% m/m, dissolved at 80° C. for 1 hour, cooled to room temperature, inspected after 24 hours)","solubility in C12-C15 alkyl benzoate oil (Finsolv TN), in words ([3]; all concentrations)"
CCCCCCCCOC(=O)C(=CC=CN(CCCCCCN(C=CC=C(C(=O)OCCCCCCCC)S(=O)(=O)c1ccccc1)Cc1ccccc1)CCCCCCN(C=CC=C(C(=O)OCCCCCCCC)S(=O)(=O)c1ccccc1)Cc1ccccc1)S(=O)(=O)c1ccccc1 [Compound 4],++ (++ means >95% left),++ (++ means >95% left),++ (++ means >95% left),very heat stable,do not penetrate into or through the skin,no penetration,1400,+,+,+,+,+,+,very well soluble at all concentrations
CCCCCCCCOC(=O)C(=CC=CN(CCCC)CCCCCCN(C=CC=C(C(=O)OCCCCCCCC)S(=O)(=O)c1ccccc1)CCCCCCN(C=CC=C(C(=O)OCCCCCCCC)S(=O)(=O)c1ccccc1)CCCC)S(=O)(=O)c1ccccc1 [Compound 6],++ (++ means >95% left),++ (++ means >95% left),++ (++ means >95% left),very heat stable,do not penetrate into or through the skin,no penetration,–,–,–,–,–,–,–,–
CCCCCCCCOC(=O)C(=CC=CN(CCN(C=CC=C(C(=O)OCCCCCCCC)S(=O)(=O)c1ccccc1)Cc1ccccc1)CCN(C=CC=C(C(=O)OCCCCCCCC)S(=O)(=O)c1ccccc1)Cc1ccccc1)S(=O)(=O)c1ccccc1 [Compound 9],++ (++ means >95% left),++ (++ means >95% left),++ (++ means >95% left),very heat stable; also recorded: good heat stability,do not penetrate into or through the skin,no penetration,–,–,–,–,–,–,–,–
